Reference: US10179782B2, “Substituted sulfonamide compounds” (Genentech, Inc., priority 2016, dated 2019)

Target: T1, human TRPA1 (Homo sapiens, UniProt O75762)
T1 construct: expressed in transfected cells; host or cells: CHO cells
Experiment: TRPA1 FLIPR Tetra calcium influx assay in CHO cells (block of cinnamaldehyde-induced calcium influx)
Assay type: cell-based
Settings: Table 2; CHO cells expressing TRPA1; agonist cinnamaldehyde 75 uM; 20 min compound incubation; Hill coefficient fixed to 1.5; read-out: hTRPA1 CHO Ca2+ AUC EVO (IC50)
Protocol: IC50s (effective concentration) of compounds on the human and rat TRPA1 channels were determined using a FLIPR Tetra instrument. CHO cells expressing TRPA1 were plated into 384-well plates, incubated overnight at 37 C, and loaded with BD calcium indicator dye for 1 hr at 37° C. followed by 15 minutes at room temperature. The assay buffer was Hank's Balanced Salt Solution (HBSS) containing 20 mM HEPES (pH readjusted to 7.4) along with 0.02% BSA.
Following dye load and plate cool down, compounds were added to the cells using FLIPR Tetra. Plates were then incubated with compounds for 20 minutes at room temperature prior to adding agonist. Following this incubation, ˜EC80 concentration of cinnamaldehyde (75 uM for human TRPA1 and 45 uM for rat TRPA1) was added to active the channels and block of cinnamaldehyde induced calcium influx was measured.
IC50s were fit with a standard Hill function, keeping the Hill coefficient (n) fixed to 1.5. Fixing the Hill coefficient will generally reduce variability of the IC50 determination. The IC50s were individually examined to make sure the MIN and MAX points were set correctly prior to validation of the results.

T1 sequence (O75762 whole entry): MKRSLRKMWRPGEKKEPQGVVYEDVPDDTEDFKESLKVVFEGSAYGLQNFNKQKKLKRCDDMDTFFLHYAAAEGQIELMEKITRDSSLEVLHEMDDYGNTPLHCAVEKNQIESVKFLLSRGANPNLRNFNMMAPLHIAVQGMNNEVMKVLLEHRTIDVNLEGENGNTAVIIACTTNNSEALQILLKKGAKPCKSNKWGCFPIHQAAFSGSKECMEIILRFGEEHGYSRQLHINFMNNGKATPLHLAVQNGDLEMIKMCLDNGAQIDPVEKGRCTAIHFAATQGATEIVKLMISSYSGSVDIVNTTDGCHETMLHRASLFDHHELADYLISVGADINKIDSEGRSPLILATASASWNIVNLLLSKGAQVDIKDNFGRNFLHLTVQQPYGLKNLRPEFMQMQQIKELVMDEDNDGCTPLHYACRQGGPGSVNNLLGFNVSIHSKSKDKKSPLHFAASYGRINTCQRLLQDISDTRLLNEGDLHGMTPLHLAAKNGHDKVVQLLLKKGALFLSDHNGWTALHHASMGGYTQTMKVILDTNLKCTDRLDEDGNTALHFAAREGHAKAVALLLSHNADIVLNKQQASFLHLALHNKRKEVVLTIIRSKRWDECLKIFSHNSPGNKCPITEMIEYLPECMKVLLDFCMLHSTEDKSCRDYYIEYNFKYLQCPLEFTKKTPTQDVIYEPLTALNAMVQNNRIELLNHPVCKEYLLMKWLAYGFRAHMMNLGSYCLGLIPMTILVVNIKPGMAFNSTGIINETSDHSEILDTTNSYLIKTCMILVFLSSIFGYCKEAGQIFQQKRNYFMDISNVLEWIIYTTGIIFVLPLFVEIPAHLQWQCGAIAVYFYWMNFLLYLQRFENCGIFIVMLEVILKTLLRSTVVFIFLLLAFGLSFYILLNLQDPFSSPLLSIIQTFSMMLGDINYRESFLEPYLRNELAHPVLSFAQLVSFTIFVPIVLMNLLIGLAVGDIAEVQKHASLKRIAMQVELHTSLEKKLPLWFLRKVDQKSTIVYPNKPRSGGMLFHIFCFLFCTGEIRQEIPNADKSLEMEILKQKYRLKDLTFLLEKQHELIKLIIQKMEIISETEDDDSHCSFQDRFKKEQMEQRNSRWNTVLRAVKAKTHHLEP

SMILES | IC50 [nM]
O=C(NCc1cc(-c2cnc(C(F)(F)F)nc2)ncn1)[C@@H]1CC[C@H](C2CC2)N1S(=O)(=O)c1ccc(F)cc1 [Example 21, (2S,5R)-5-cyclopropyl-1-(4-fluorophenyl)sulfonyl-N-[[6-[2-(trifluoromethyl)pyrimidin-5-yl]pyrimidin-4-yl]methyl]pyrrolidine-2-carboxamide] | 71.3
O=C(NCc1cc(-c2cnc(C(F)(F)F)nc2)ncn1)[C@H]1CC[C@@H](C(F)(F)F)N1S(=O)(=O)c1ccc(F)cc1 [Example 22, (2R,5S)-1-(4-fluorophenyl)sulfonyl-5-(trifluoromethyl)-N-[[6-[2-(trifluoromethyl)pyrimidin-5-yl]pyrimidin-4-yl]methyl]pyrrolidine-2-carboxamide] | 3610
C[C@H]1[C@H](F)C[C@@H](C(=O)NCc2cc(-c3ccc(C(F)(F)F)nc3)ncn2)N1S(=O)(=O)c1ccc(F)cc1 [Example 23, (2S,4R,5S)-4-fluoro-1-(4-fluorophenyl)sulfonyl-5-methyl-N-[[6-[6-(trifluoromethyl)-3-pyridyl]pyrimidin-4-yl]methyl]pyrrolidine-2-carboxamide] | 85.6
C[C@H]1[C@H](F)C[C@@H](C(=O)NCc2cc(N3CC(OC(F)(F)F)C3)ncn2)N1S(=O)(=O)c1ccc(F)cc1 [Example 25, (2S,4R,5S)-4-fluoro-1-(4-fluorophenylsulfonyl)-5-methyl-N-((6-(3-(trifluoromethoxy)azetidin-1-yl)pyrimidin-4-yl)methyl)pyrrolidine-2-carboxamide] | 2400
C[C@H]1[C@H](F)C[C@@H](C(=O)NCc2cc(-c3cnc(C(F)(F)F)nc3)ncc2F)N1S(=O)(=O)c1ccccc1 [Example 27, (2S,4R,5S)-4-fluoro-N-((5-fluoro-2-(2-(trifluoromethyl)pyrimidin-5-yl)pyridin-4-yl)methyl)-5-methyl-1-(phenylsulfonyl)pyrrolidine-2-carboxamide] | 46.4
C[C@H]1[C@H](F)C[C@@H](C(=O)NCc2cc(-c3cnc(C(F)(F)F)nc3)ccn2)N1S(=O)(=O)c1ccc(F)cc1 [Example 29, (2S,4R,5S)-4-fluoro-1-(4-fluorophenylsulfonyl)-5-methyl-N-((4-(2-(trifluoromethyl)pyrimidin-5-yl)pyridin-2-yl)methyl)pyrrolidine-2-carboxamide] | 113
C[C@H]1[C@H](F)C[C@@H](C(=O)NCc2cc(-c3ccc(C(F)(F)F)cn3)ccn2)N1S(=O)(=O)c1ccc(F)cc1 [Example 31, (2S,4R,5S)-4-fluoro-1-(4-fluorophenylsulfonyl)-5-methyl-N-((5-(trifluoromethyl)-2,4′-bipyridin-2′-yl)methyl)pyrrolidine-2-carboxamide] | 58.7
COc1cnc(CNC(=O)[C@@H]2C[C@@H](F)[C@H](C)N2S(=O)(=O)c2ccc(F)cc2)cc1-c1cnc(C(F)(F)F)nc1 [Example 35, (2S,4R,5S)-4-fluoro-1-[(4-fluorobenzene)sulfonyl]-N-([5-methoxy-4-[2-(trifluoromethyl)pyrimidin-5-yl]pyridin-2-yl]methyl)-5-methylpyrrolidine-2-carboxamide] | 53.1
C[C@H]1[C@H](F)C[C@@H](C(=O)NCc2ccnc(-c3cnc(C(F)(F)F)nc3)c2)N1S(=O)(=O)c1ccc(F)cc1 [Example 38, (4R,5S)-4-fluoro-1-[(4-fluorobenzene)sulfonyl]-5-methyl-N-([2-[2-(trifluoromethyl)pyrimidin-5-yl]pyridin-4-yl]methyl)pyrrolidine-2-carboxamide] | 69.4
C[C@H]1[C@H](F)C[C@@H](C(=O)NCc2cc(-c3cnc(C(F)(F)F)nc3)ncc2F)N1S(=O)(=O)c1ccncc1 [Example 39, (2S,4R,5S)-4-fluoro-N-((5-fluoro-2-(2-(trifluoromethyl)pyrimidin-5-yl)pyridin-4-yl)methyl)-5-methyl-1-(pyridin-4-ylsulfonyl)pyrrolidine-2-carboxamide] | 630

Compounds with a lower IC50, results first:

IC50 [nM] | SMILES
19.3 | C[C@H]1[C@H](F)C[C@@H](C(=O)NCc2cc(-c3cnc(C(F)(F)F)nc3)ncc2OC(F)F)N1S(=O)(=O)c1ccc(F)cc1 [Example 24, (2S,4R,5S)-N-((5-(difluoromethoxy)-2-(2-(trifluoromethyl)pyrimidin-5-yl)pyridin-4-yl)methyl)-4-fluoro-1-(4-fluorophenylsulfonyl)-5-methylpyrrolidine-2-carboxamide]
41.2 | C[C@H]1[C@H](F)C[C@@H](C(=O)NCc2cc(-c3ccc(C(F)(F)F)nc3)ncc2F)N1S(=O)(=O)c1ccc(F)cc1 [Example 26, (2S,4R,5S)-4-fluoro-N-((5-fluoro-6′-(trifluoromethyl)-2,3′-bipyridin-4-yl)methyl)-1-(4-fluorophenylsulfonyl)-5-methylpyrrolidine-2-carboxamide]
6.96 | C[C@H]1[C@H](F)C[C@@H](C(=O)NCc2cc(-c3cnc(C(F)(F)F)nc3)ncc2F)N1S(=O)(=O)c1ccc(F)c(F)c1 [Example 28, (2S,4R,5S)-1-(3,4-difluorophenylsulfonyl)-4-fluoro-N-((5-fluoro-2-(2-(trifluoromethyl)pyrimidin-5-yl)pyridin-4-yl)methyl)-5-methylpyrrolidine-2-carboxamide]
8.65 | C[C@H]1[C@H](F)C[C@@H](C(=O)NCc2cc(-c3cnc(C(F)(F)F)nc3)c(F)cc2C#N)N1S(=O)(=O)c1ccc(F)cc1 [Example 30, (2S,4R,5S)-N-(2-cyano-4-fluoro-5-(2-(trifluoromethyl)pyrimidin-5-yl)benzyl)-4-fluoro-1-(4-fluorophenylsulfonyl)-5-methylpyrrolidine-2-carboxamide]
10.4 | C[C@H]1[C@H](F)C[C@@H](C(=O)NCc2cc(-c3cnc(C(F)(F)F)nc3)c(Cl)cn2)N1S(=O)(=O)c1ccc(F)cc1 [Example 32, (2S,4R,5S)-N-((5-chloro-4-(2-(trifluoromethyl)pyrimidin-5-yl)pyridin-2-yl)methyl)-4-fluoro-1-(4-fluorophenylsulfonyl)-5-methylpyrrolidine-2-carboxamide]
3.58 | C[C@H]1[C@H](F)C[C@@H](C(=O)NCc2cc(-c3cnc(C(F)(F)F)nc3)ccc2C#N)N1S(=O)(=O)c1ccc(F)cc1 [Example 33, (2S,4R,5S)-N-([2-cyano-5-[2-(trifluoromethyl)pyrimidin-5-yl]phenyl]methyl)-4-fluoro-1-[(4-fluorobenzene)sulfonyl]-5-methylpyrrolidine-2-carboxamide]
38.8 | C[C@H]1[C@H](F)C[C@@H](C(=O)NCc2cc(-c3cnc(C(F)(F)F)nc3)c(F)cn2)N1S(=O)(=O)c1ccc(F)cc1 [Example 34, (2S,4R,5S)-4-fluoro-N-([5-fluoro-4-[2-(trifluoromethyl)pyrimidin-5-yl]pyridin-2-yl]methyl)-1-[(4-fluorobenzene)sulfonyl]-5-methylpyrrolidine-2-carboxamide]
26 | C[C@H]1[C@H](F)C[C@@H](C(=O)NCc2cc(-c3ccc(C(F)(F)F)nc3)c(F)cn2)N1S(=O)(=O)c1ccc(F)cc1 [Example 36, (2S,4R,5S)-4-fluoro-N-([5-fluoro-4-[6-(trifluoromethyl)pyridin-3-yl]pyridin-2-yl]methyl)-1-[(4-fluorobenzene)sulfonyl]-5-methylpyrrolidine-2-carboxamide]
5.4 | C[C@H]1[C@H](F)C[C@@H](C(=O)NCc2cc(-c3cnc(C(F)(F)F)nc3)nc(C3CC3)n2)N1S(=O)(=O)c1ccc(F)cc1 [Example 37, (2S,4R,5S)-N-([2-cyclopropyl-6-[2-(trifluoromethyl)pyrimidin-5-yl]pyrimidin-4-yl]methyl)-4-fluoro-1-[(4-fluorobenzene)sulfonyl]-5-methylpyrrolidine-2-carboxamide]
43.1 | C[C@H]1[C@H](F)C[C@@H](C(=O)NCc2cn(-c3cnc(C(F)(F)F)nc3)nc2C(F)F)N1S(=O)(=O)c1ccc(F)cc1 [Example 40, (2S,4R,5S)-N-[[3-(difluoromethyl)-1-[2-(trifluoromethyl)pyrimidin-5-yl]-1H-pyrazol-4-yl]methyl]-4-fluoro-1-[(4-fluorobenzene)sulfonyl]-5-methylpyrrolidine-2-carboxamide]
40.5 | C[C@H]1[C@H](F)C[C@@H](C(=O)NCc2cc(-c3cnc(C(F)(F)F)nc3)ncc2F)N1S(=O)(=O)c1cccc(F)c1 [Example 41, (2S,4R,5S)-4-fluoro-N-((5-fluoro-2-(2-(trifluoromethyl)pyrimidin-5-yl)pyridin-4-yl)methyl)-1-(3-fluorophenylsulfonyl)-5-methylpyrrolidine-2-carboxamide]
21.9 | C[C@H]1[C@H](F)C[C@@H](C(=O)NCc2cc(-c3cnc(C(F)(F)F)nc3)nc(N3CCC3)n2)N1S(=O)(=O)c1ccc(F)cc1 [Example 42, (2S,4R,5S)-N-((2-(azetidin-1-yl)-2′-(trifluoromethyl)-4,5′-bipyrimidin-6-yl)methyl)-4-fluoro-1-(4-fluorophenylsulfonyl)-5-methylpyrrolidine-2-carboxamide]
9.39 | C[C@H]1[C@H](F)C[C@@H](C(=O)NCc2ccc(F)c(-c3cnc(C(F)(F)F)nc3)c2)N1S(=O)(=O)c1ccc(F)cc1 [Example 43, (2S,4R,5S)-4-fluoro-N-(4-fluoro-3-(2-(trifluoromethyl)pyrimidin-5-yl)benzyl)-1-(4-fluorophenylsulfonyl)-5-methylpyrrolidine-2-carboxamide]
